These results are taken from ChEMBL document CHEMBL2069291, “Orally available pyridinylpyrimidine derivatives as novel RANKL-induced osteoclastogenesis inhibitors” (Bioorg Med Chem Lett, 2012).

Data set [1] can be described thus: Permeability of the compound by PAMPA assay. It counts as ADME. The conditions noted are these: read-out: permeability.
Data set [2] is described as follows: Cmax in ovariectomized Wistar rat at 3 mg/kg, po administered as single dose. The class given is ADME, organism-based. To be noted: female, in vivo. The arrangement: dose 3 mg/kg, route oral.
Data set [3] in a line: Solubility in phosphate buffer at pH 6.8. It counts as physicochemical.
The nature of data set [4]: Cmax in female C57BL/6 mouse at 3 mg/kg, po administered as single dose. The class given is ADME, organism-based. The arrangement: dose 3 mg/kg, route oral. The conditions noted are these: in vivo.
A short description of data set [5]: AUC (0 to infinity) in female C57BL/6 mouse at 3 mg/kg, po administered as single dose. It counts as ADME, organism-based. The arrangement: dose 3 mg/kg, route oral, time infinity. The conditions noted are these: plasma.
Data set [6] can be described thus: AUC (0 to infinity) in ovariectomized Wistar rat at 3 mg/kg, po administered as single dose. To be noted: female, plasma. It counts as ADME, organism-based. The arrangement: dose 3 mg/kg, route oral, time infinity.
The nature of data set [7]: Cmax in female C57BL/6 mouse at 1 mg/kg, po administered as single dose. To be noted: in vivo.
Data set [8] can be described thus: AUC (0 to infinity) in female C57BL/6 mouse at 1 mg/kg, po administered as single dose. The conditions noted are these: plasma.

Regarding `COc1cnc(-c2ccccn2)nc1NCc1c(F)cc(F)cc1F`, the Papp in data set [1] was over 30 ×10⁻⁶ cm/s. The peak concentration (Cmax) in data set [2] stood at 135 ng/mL; in data set [4] it was 98 ng/mL. The solubility in data set [3] is over 25 µg/mL. Besides, the AUC(0-inf) in data set [5] is 188 ng·h/mL; in data set [6] it was 542 ng·h/mL.
Consider `COc1cnc(-c2ccccn2)nc1NCc1ccccc1F`, for which the Papp in data set [1] was over 30 ×10⁻⁶ cm/s. Besides, the figures for the maximum concentration (Cmax) in data set [2] and in data set [4] were 49 ng/mL and 130 ng/mL, respectively. Also, the solubility in data set [3] was over 25 µg/mL. The results for the AUC(0-inf) in data set [5] and in data set [6] were 240 ng·h/mL and 151 ng·h/mL, respectively.
For the compound `COc1cnc(-c2ccccn2)nc1NCc1ccc(F)cc1C(F)(F)F`, the Papp in data set [1] was over 30 ×10⁻⁶ cm/s. Moreover, the highest concentration (Cmax) was 156 ng/mL in data set [2] and 599 ng/mL in data set [4]. Moreover, in data set [3], the solubility was over 25 µg/mL. For the same compound, the values for the AUC(0-inf) in data set [5] and in data set [6] were 1020 ng·h/mL and 943 ng·h/mL, respectively.
With `COc1cnc(-c2ccccn2)nc1N1CCCC1`, the maximum concentration (Cmax) in data set [7] was 7 ng/mL. In data set [8], the AUC(0-inf) was determined as 15 ng·h/mL.
